Reference: patent US11884676B2, “Substituted pyrimido[1,2-b]pyridazines as positive allosteric modulators of the muscarinic acetylcholine receptor M4” (Vanderbilt University, priority 2020, dated 2024)
pEC50: −log10 of the molar value.

Target: T1, Human M4 (Homo sapiens, UniProt P08173)
T1 construct: expressed in transfected cells
T1 sequence (P08173 1-479): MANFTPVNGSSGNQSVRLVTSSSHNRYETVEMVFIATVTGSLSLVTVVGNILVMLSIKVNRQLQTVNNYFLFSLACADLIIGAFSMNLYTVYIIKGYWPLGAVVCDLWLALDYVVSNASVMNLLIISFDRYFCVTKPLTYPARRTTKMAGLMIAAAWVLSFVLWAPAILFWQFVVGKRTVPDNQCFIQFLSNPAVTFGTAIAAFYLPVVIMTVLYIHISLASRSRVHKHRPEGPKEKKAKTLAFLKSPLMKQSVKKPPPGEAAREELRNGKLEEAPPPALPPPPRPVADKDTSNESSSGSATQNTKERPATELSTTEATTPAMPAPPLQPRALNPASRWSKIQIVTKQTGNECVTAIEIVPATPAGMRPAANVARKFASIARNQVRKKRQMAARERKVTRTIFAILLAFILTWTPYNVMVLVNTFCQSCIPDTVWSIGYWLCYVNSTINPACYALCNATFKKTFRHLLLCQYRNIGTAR
Experiment: mAChR M4 cell-based functional assay (calcium flux, PAM mode)
Conditions: hM4-Gqi5 CHO-K1 cells; for Emax at 30 µM: CHO-K1, % ACh maximum at 30 μM; for pEC50: concentration-dependent increase in the EC20 acetylcholine response
In short: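 CHO-K1 cells stably co-expressing human M4 and chimeric Gqi5, Fluo-4 loaded; compound added first (11-point, 1:3 CRC), then EC20 acetylcholine at 144 s and EC80 at 230 s. PAM activity read on FDSS as concentration-dependent increase of EC20 ACh calcium response; EC50 and Emax from four-parameter logistic fit.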

Row | SMILES | Emax at 30 µM [%] | pEC50
1 | [2H]C1([2H])Oc2ccc(OC3CCN(c4nn5c(=O)cc(C(F)F)nc5cc4C)CC3)cc2OC1([2H])[2H] [Compound 8, 2-(Difluoromethyl)-7-(4-((2,3-dihydrobenzo[b][1,4]dioxin-6-yl-2,2,3,3-d4)oxy)piperidin-1-yl)-8-methyl-4H-pyrimido[1,2-b]pyridazin-4-one] | 76 | 7.72
2 | [2H]C1(Oc2ccc(C)cc2)CCN(c2nn3c(=O)ccnc3cc2C)CC1 [Compound 92, 8-methyl-7-(4-(p-tolyloxy)piperidin-1-yl-4-d)-4H-pyrimido[1,2-b]pyridazin-4-one] | 89 | 6.20
3 | COc1c(C)c(N2CCC(Oc3ccc4c(c3)OCCO4)CC2)nn2c(=O)ccnc12 [Compound 126, 7-(4-((2,3-Dihydrobenzo[b][1,4]dioxin-6-yl)oxy)piperidin-1-yl)-9-methoxy-8-methyl-4H-pyrimido[1,2-b]pyridazin-4-one] | 109 | 6.38
4 | Cc1cc2nccc(=O)n2nc1N1CC[C@@H](Oc2ccc3c(c2)OCCO3)C[C@H]1C (stereo in doubt) [Compound 106, 7-((2R,4R)-4-((2,3-dihydrobenzo[b][1,4]dioxin-6-yl)oxy)-2-methylpiperidin-1-yl)-8-methyl-4H-pyrimido[1,2-b]pyridazin-4-one] | 81 | 6.09
5 | COCc1cc(=O)n2nc(N3CCC(Oc4ccc5c(c4)OCCO5)CC3)c(C)c(C)c2n1 [Compound 13, 7-(4-((2,3-Dihydrobenzo[b][1,4]dioxin-6-yl)oxy)piperidin-1-yl)-2-(methoxymethyl)-8,9-dimethyl-4H-pyrimido[1,2-b]pyridazin-4-one] | 95 | 7.66
6 | [2H]C1([2H])Oc2ccc(OC3CCN(c4nn5c(=O)cc(C)nc5cc4C)CC3)cc2OC1([2H])[2H] [Compound 3, 7-(4-((2,3-Dihydrobenzo[b][1,4]dioxin-6-yl-2,2,3,3-d4)oxy)piperidin-1-yl)-2,8-dimethyl-4H-pyrimido[1,2-b]pyridazin-4-one] | 86 | 7.52
7 | [2H]C1(Oc2ccc3c(c2)OCCCO3)CCN(c2nn3c(=O)cc(C(F)(F)F)nc3cc2C)CC1 [Compound 64, 7-(4-((3,4-dihydro-2H-benzo[b][1,4]dioxepin-7-yl)oxy)piperidin-1-yl-4-d)-8-methyl-2-(trifluoromethyl)-4H-pyrimido[1,2-b]pyridazin-4-one] | 104 | 6.76
8 | [2H]C1([2H])CC(Oc2ccc3c(c2)OC([2H])([2H])C([2H])([2H])O3)CC([2H])([2H])N1c1nn2c(=O)ccnc2cc1C [Compound 137, 7-(4-((2,3-dihydrobenzo[b][1,4]dioxin-6-yl-2,2,3,3-d4)oxy)piperidin-1-yl-2,2,6,6-d4)-8-methyl-4H-pyrimido[1,2-b]pyridazin-4-one] | 105 | 7.35
9 | [2H]C1(Oc2ccc3c(c2)OC([2H])([2H])C([2H])([2H])O3)CCN(c2nn3c(=O)ccnc3c(C)c2C)CC1 [Compound 69, 7-(4-((2,3-dihydrobenzo[b][1,4]dioxin-6-yl-2,2,3,3-d4)oxy)piperidin-1-yl-4-d)-8,9-dimethyl-4H-pyrimido[1,2-b]pyridazin-4-one] | 97 | 7.70
10 | COCc1ncc(OC2CCN(c3nn4c(=O)ccnc4cc3C)CC2)cc1C [Compound 93, 7-(4-((6-(methoxymethyl)-5-methylpyridin-3-yl)oxy)piperidin-1-yl)-8-methyl-4H-pyrimido[1,2-b]pyridazin-4-one] | 70 | < 5.00
11 | [2H]C1([2H])Oc2ccc(OC3CCN(c4nn5c(=O)cc(C(F)F)nc5c(C)c4C)CC3)cc2OC1([2H])[2H] [Compound 9, 2-(Difluoromethyl)-7-(4-((2,3-dihydrobenzo[b][1,4]dioxin-6-yl-2,2,3,3-d4)oxy)piperidin-1-yl)-8,9-dimethyl-4H-pyrimido[1,2-b]pyridazin-4-one] | 96 | 7.55
12 | [2H]C1([2H])Oc2ccc(OC3CCN(c4cc(C)c5nccc(=O)n5n4)CC3)cc2OC1([2H])[2H] [Compound 22, 7-(4-((2,3-dihydrobenzo[b][1,4]dioxin-6-yl-2,2,3,3-d4)oxy)piperidin-1-yl)-9-methyl-4H-pyrimido[1,2-b]pyridazin-4-one] | 36 | 5.74
13 | Cc1cc2nccc(=O)n2nc1N1CC[C@@H](Oc2ccc3c(c2)OCCO3)[C@@H](C)C1 (single isomer, unassigned) [Compound 113, 7-((3R,4S) or (3S,4R))-4-(2,3-dihydrobenzo[b][1,4]dioxin-6-yl)oxy)-3-methylpiperidin-1-yl)-8-methyl-4H-pyrimido[1,2-b]pyridazin-4-one] | 96 | 6.96
14 | [2H]C1(Oc2ccc3c(c2)OC([2H])([2H])C([2H])([2H])O3)CCN(c2nn3c(=O)cc(COC)nc3c(C)c2C)CC1 [Compound 110, 7-(4-((2,3-dihydrobenzo[b][1,4]dioxin-6-yl-2,2,3,3-d4)oxy)piperidin-1-yl-4-d)-2-(methoxymethyl)-8,9-dimethyl-4H-pyrimido[1,2-b]pyridazin-4-one] | 80 | 7.36
15 | Cc1c(N2CCC(Oc3ccc(F)cc3)CC2)nn2c(=O)cc(C(F)F)nc2c1C [Compound 84, 2-(difluoromethyl)-7-(4-(4-fluorophenoxy)piperidin-1-yl)-8,9-dimethyl-4H-pyrimido[1,2-b]pyridazin-4-one] | 86 | 6.85
16 | Cc1cc2nccc(=O)n2nc1N1CC[C@@H](Oc2ccc3c(c2)CCOC3)[C@H](F)C1 [Compound 54, 7-((3R,4R)-3-fluoro-4-(isochroman-6-yloxy)piperidin-1-yl)-8-methyl-4H-pyrimido[1,2-b]pyridazin-4-one] | 89 | 6.50
17 | [2H]C1([2H])Oc2ccc(O[C@@H]3CCN(c4nn5c(=O)ccnc5cc4C)C[C@@H]3F)cc2OC1([2H])[2H] [Compound 111, 7-((3S,4R)-4-((2,3-dihydrobenzo[b][1,4]dioxin-6-yl-2,2,3,3-d4)oxy)-3-fluoropiperidin-1-yl)-8-methyl-4H-pyrimido[1,2-b]pyridazin-4-one] | 106 | 7.17
18 | Cc1cc(=O)n2nc(N3CCC(Oc4ccc5c(c4)CCN(C)C5=O)CC3)c(C)cc2n1 [Compound 74, 2,8-dimethyl-7-(4-((2-methyl-1-oxo-1,2,3,4-tetrahydroisoquinolin-6-yl)oxy)piperidin-1-yl)-4H-pyrimido[1,2-b]pyridazin-4-one] | 84 | 5.63
19 | [2H]C1(Oc2ccc3c(c2)OC([2H])([2H])C([2H])([2H])O3)CCN(c2nn3c(=O)ccnc3cc2C)CC1 [Compound 39, 7-(4-((2,3-dihydrobenzo[b][1,4]dioxin-6-yl-2,2,3,3-d4)oxy)piperidin-1-yl-4-d)-8-methyl-4H-pyrimido[1,2-b]pyridazin-4-one] | 111 | 6.94
20 | [2H]C1([2H])Oc2ccc(OC3CCN(c4nn5c(=O)cc(C(F)(F)F)nc5c(C)c4C)CC3)cc2OC1([2H])[2H] [Compound 7, 7-(4-((2,3-Dihydrobenzo[b][1,4]dioxin-6-yl-2,2,3,3-d4)oxy)piperidin-1-yl)-8,9-dimethyl-2-(trifluoromethyl)-4H-pyrimido[1,2-b]pyridazin-4-one] | 93 | 7.15
21 | [2H]C1([2H])Oc2ccc(O[C@@H]3CCN(c4nn5c(=O)cc(COC)nc5c(C)c4C)C[C@@H]3F)cc2OC1([2H])[2H] [Compound 121, 7-((3S,4R)-4-((2,3-dihydrobenzo[b][1,4]dioxin-6-yl-2,2,3,3-d4)oxy)-3-fluoropiperidin-1-yl)-2-(methoxymethyl)-8,9-dimethyl-4H-pyrimido[1,2-b]pyridazin-4-one] | 111 | 7.38
22 | Cc1cc2nc(C)c(F)c(=O)n2nc1N1CC[C@@H](Oc2ccc3c(c2)OCCO3)[C@H](F)C1 [Compound 36, 7-((3R,4R)-4-((2,3-dihydrobenzo[b][1,4]dioxin-6-yl)oxy)-3-fluoropiperidin-1-yl)-3-fluoro-2,8-dimethyl-4H-pyrimido[1,2-b]pyridazin-4-one] | 116 | 7.40
23 | [2H]C1(Oc2ccc3c(c2)OC([2H])([2H])C([2H])([2H])O3)CCN(c2nn3c(=O)cc(CC)nc3c(C)c2C)CC1 [Compound 98, 7-(4-((2,3-dihydrobenzo[b][1,4]dioxin-6-yl-2,2,3,3-d4)oxy)piperidin-1-yl-4-d)-2-ethyl-8,9-dimethyl-4H-pyrimido[1,2-b]pyridazin-4-one] | 90 | 7.19
24 | Cc1ccc(OC2CCN(c3nn4c(=O)cc(C(F)F)nc4c(C)c3C)CC2)cc1 [Compound 85, 2-(difluoromethyl)-8,9-dimethyl-7-(4-(p-tolyloxy)piperidin-1-yl)-4H-pyrimido[1,2-b]pyridazin-4-one] | 101 | 6.41
25 | [2H]C1(Oc2ccc3c(c2)OCCO3)CCN(c2nn3c(=O)cc(C(F)F)nc3cc2C)CC1 [Compound 61, 2-(difluoromethyl)-7-(4-((2,3-dihydrobenzo[b][1,4]dioxin-6-yl)oxy)piperidin-1-yl-4-d)-8-methyl-4H-pyrimido[1,2-b]pyridazin-4-one] | 94 | 7.92
